Reference: PubChem BioAssay AID248 (DTP/NCI, 2004)
Inconclusive results and toxic doses are left out. No stated cut-off is given here; in the data, active means T/C of 150% or more; inactive means T/C below 125%.

System: L1210 leukemia ip in BDF1 mice, survival T/C
Assay: NCI In Vivo Anticancer Drug Screen. Data for tumor model L1210 Leukemia (intraperitoneal) in B6D2F1 (BDF1) mice
Conditions: endpoint: mean survival time, schedule: Q04DX002 (ip), vehicle: saline, higher = longer survival
Outline: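 Mice bearing the transplanted tumor received compound or vehicle. Survival of the treated group was divided by that of the vehicle-treated control group to give the ratio.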

Measured: T/C

O=S1(=O)CS(=O)(=O)CS(=O)(=O)C1
inactive: dose: 100.0 mg/kg/injection 108 % of control | dose: 200.0 mg/kg/injection 119 % of control | dose: 400.0 mg/kg/injection 101 % of control
